Results reported in US11466054B2, “Inhibitors of metastasis” (BIOMARCK PHARMACEUTICALS LTD., priority 2013, dated 2022).
Where no end group is shown, it is not given here. The star is where a group is joined. Myristoyl = CCCCCCCCCCCCCC(=O)*

Assays:
CL1-5 cells = test: Transwell migration assay, CL1-5 cells pretreated with peptide; format: cell-based, human; details: 12 hours; for cell number: control approximately 105;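 on migration index: index equals control cell count divided by treated cell count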
Procedure: CL1-5 cells, an aggressively metastatic cell line derived from a human adenocarcinoma, were cultured in RPMI 1640 media with 10% FBS, 37° C. at 95% […]/5% CO2 until ready for use. Transwell plates (24-well, 8-um pore size; Costar, Cambridge, Mass., USA) were used to conduct the migration assay. The lower chambers of the Transwell plates were filled with 600 μl of basal media containing 10% FBS. The cells (1×10^5) were pretreated with 50 or 100 μM of the indicated test peptide for 30 min, and then suspended in 100 μl of basal media containing 1% BSA and added to the upper chamber, and the cells then were incubated at 37° C. for 12 hr. The cells on the upper surface of the filters were removed using cotton swabs, and the cells that migrated to the lower surface of the filters were washed, fixed, and stained with hematoxylin and counted under the microscope. The percent change in migration was determined by counting the number of cells that migrated to the lower surface of the filters. At least 3 separate microscopic fields were counted per membrane (n=4).
Primary CL1-5 cells originated from human adenocarcinoma lung cancer Transwell plates with 24-wells, 8-μ pore size (Costar, Cambridge, Mass., USA) were used to conduct the migration assay. The lower chambers of the transwell plates were filled with 600 μL of basal media containing 10% FBS. The cells (1-2×10^5) were suspended in 100 μL of basal media containing 1% BSA. The test peptide at desired concentration was added to the upper chamber directly or after preincubation with cancer cells. The plates were then incubated at 37° C. for 12 hours. The cells on the upper surface of the filters were removed using cotton swabs. The cells that migrated to the lower surface of the filters were washed, fixed, and stained with hematoxylin and counted under the microscope. At least five separate microscopic fields are counted per membrane (n=3). The percent change in migration was determined by counting the number of cells that migrated to the lower surface of the filters.
The count means the actual number of cells which migrated to the lower chamber and counted by a light microscope at 40× magnification, presented as the mean number of cells in 10 randomly chosen fields for each treatment.
The “index” was calculated by dividing the number of cells that migrated in the presence of peptides by the number of cells that migrated randomly (control group). […]. This calculation can reflect the extent that the migration of cells was blocked by 30 minute pretreatment with MANS-related peptides.

A549 = test: Transwell migration assay, A549 cells; format: cell-based, human; details: 12 hr; for migration index numbers relative to control and to RNS peptide / migrated cell numbers relative to control and to RNS peptide: A549, 50 μm; for migrated cell numbers relative to control and to RNS peptide / cell numbers in comparison to control, RNS peptide and MANS peptide: FIG. 11; for cell numbers in comparison to control, RNS peptide and MANS peptide: A549, 25 μm
Procedure: The human adenocarcinoma-derived alveolar epithelial cell line A549 (an invasive cell line) was obtained from the American Type Culture Collection (ATCC) and was cultured in RPMI-1640 supplemented with 10% fetal bovine serum and 100 U/ml penicillin/streptomycin, in 75 cm^2 tissue culture flasks. The cells reached confluence by the third day of culture at 37° C. in an atmosphere of 95% air and 5% CO2 and were maintained by serial passage.
The test peptides (MANS, RNS, BIO-11006, BIO-11000, BIO-11002, BIO-91200, and BIO-10901) were dissolved in PBS at a pH of 7.0; slow vortex mixing for about two hours aided solubility.
Transwell plates (24-well, […]; Costar, Cambridge, Mass., USA) were used to conduct the migration assay. The lower chambers of the transwell plates were filled with 600 μl of basal medium containing 10% FBS. The cells (1×10^5) were suspended in 100 μl of basal medium containing 1% BSA and added to the upper chamber, and the plates incubated at 37° C. with 5% CO2 for 12 hr in PBS (control), or the indicated test peptides at 10, 25 or 50 μM. The cells on the upper surface of the filters were removed using cotton swabs. The cells that migrated to the lower surface of the filters were washed, fixed, and stained with hematoxylin and counted under the microscope. The percent change in migration is determined by counting the number of cells that migrated to the lower surface of the filters. At least four separate microscopic fields are counted per membrane, with a total of three replicate experiments at each concentration. The statistics software “Prizm” was used for data analysis.

PC-9 cells = test: Orthotopic lung injection xenograph model, PC-9 cells in nude mice; format: in vivo; details: 50 nmoles i.p. once every three days, 25 days; for No. of Metastatic Lung Tumors Mean ± SE (L't): left lung; for No. of Metastatic Lung Tumors Mean ± SE (R't): right lung; for Tumor Size (mm) Mean ± SE: tumor at site of injection, cells pretreated 100 μM 4 hours
Procedure: The metastatic activity of cancer cells in vivo after treatment with MANS peptide or BIO-11006 was assessed in the orthotopic lung injection xenograph model. After pretreatment with either PBS, or PBS+MANS, BIO-11006 (SEQ ID NO: 106), or the control RNS peptide at 100 μM for 4 hours, PC-9 cells were injected into the left lobe of the lung of nude mice. Seven days later, these mice were given systemic treatment with either PBS only (Con), RNS (additional control peptide), MANS or BIO-11006 at 50 nmoles per intraperitoneal injection once every three days. At 25 days (6 injections) post-seeding of these tumor cells, mice were sacrificed and the number of metastasized tumor nodules in the contralateral lung and other organs was counted.

A549 cells = test: Anti-metastatic efficacy in SCID mice given A549 cells via the tail vein; format: in vivo; details: Day 53; for No. of metastatic nodules in lungs Mean ± SEM: aerosol 100 μM every other day for 7 weeks
Procedure: Female NOD.CB17-Prkdc^scid/NCrHsd, Mus musculus mice (Harlan, The Netherlands), housed in individually ventilated cages, were randomized into six groups of eight mice each. A549 cells (2.5×10^6) were injected into the mice via the tail vein. The control group received aerosolized vehicle PBS; while the groups 2 and 3 received the aerosolized test compound BIO-11006 either from −1 day before the cancer cells injection (group 2) or from +3 days after the cancer cell injection (group 3) on every other day for 7 weeks via nebulizer (Aeroneb Lab). Groups 4 and 5 received the aerosolized test compound MANS peptide either from −1 day before the cancer cell line injection (group 4) or from +3 days after the cell line injection (group 5) on every other day for 7 weeks via a nebulizer (Aeroneb Lab). For aerosol delivery, solution of each test compound (100 μM) was prepared in PBS, pH 7.0. For each treatment, 5 mL of test compound solution was aerosolized over 30 minutes into a chamber containing four mice at a time. The mice were monitored for body weight every other day for 7 weeks.
One group of mice (n=7) served as normal control. These were untreated naïve mice used to monitor the health status of mice during the study period. All animals from all groups were sacrificed on Day 53. FIG. 15 compares number of metastatic nodules in lungs after respective administration of BIO-11006 and MANS peptide on Day 53 following A549 cell injection. […] There were few focal tumor nodules in ⅞ of mice treated with BIO-11006 peptide starting at either Day −1 or Day +3 relative to A549 cell injection.

[1] = CL1-5, 50 μmolar, FIG. 8A, control=1, higher value signifies less migration
[2] = CL1-5, 100 μmolar, FIG. 8B, control=1, higher value signifies less migration
[3] = CL1-5, pretreatment at 50 μmolar, FIG. 7A
[4] = CL1-5, pretreatment at 100 μmolar, FIG. 7B
[5] = CL1-5, 50 μmolar pretreatment, FIG. 9
[6] = CL1-5, 50 μmolar pretreatment, FIG. 9, control=1.0
[7] = CL1-5, 100 μmolar pretreatment, FIG. 10
[8] = CL1-5, 100 μmolar pretreatment, FIG. 10, control=1.0

Substance	migration index (CL1-5 cells; [1])	migration index (CL1-5 cells; [2])	migrated cell numbers (CL1-5 cells; [3])	migrated cell numbers (CL1-5 cells; [4])	migration index numbers relative to control and to RNS peptide (A549)	migrated cell numbers relative to control and to RNS peptide (A549)	cell number (CL1-5 cells; [5])	migration index (CL1-5 cells; [6])	cell number (CL1-5 cells; [7])	migration index (CL1-5 cells; [8])	Metastases (affected mice/total mice) Diaphragm (PC-9 cells)	Metastases (affected mice/total mice) Heart (PC-9 cells)	Metastases (affected mice/total mice) Intestines (PC-9 cells)	Metastases (affected mice/total mice) Spleen (PC-9 cells)	No. of Metastatic Lung Tumors Mean ± SE (L't) (PC-9 cells)	No. of Metastatic Lung Tumors Mean ± SE (R't) (PC-9 cells)	Tumor Size (mm) Mean ± SE (PC-9 cells)	cell numbers in comparison to control, RNS peptide and MANS peptide (A549)	further results
N-acetyl-GAQFSKTAA (Ac-GAQFSKTAA; listed as Homo sapiens) [BIO-10901]	approximately 1.75	approximately 2.7	approximately 60	approximately 35	increased migration index numbers	decreased migrated cell numbers													
N-myristoyl-GAQFSKTAAKGEAAAERPGEAAVA (Myristoyl-GAQFSKTAAKGEAAAERPGEAAVA; listed as Homo sapiens) [MANS peptide]	approximately 2.5	approximately 4.3	approximately 40	approximately 20	increased migration index numbers	decreased migrated cell numbers	approximately 45	approximately 2.5	approximately 35	approximately 3.5	0/4	0/4	0/4	0/4	0; 0	0; 0	1.48 ± 0.54 mm		animals with few focal tumor nodules (A549 cells; +3 Day treatment group): Few focal tumor nodules in 7/8; distant metastasis (A549 cells; +3 Day treatment group): No distant metastasis; No. of metastatic nodules in lungs Mean ± SEM (A549 cells; +3 Day treatment group): 13 ± 4; animals with few focal tumor nodules (A549 cells; −1 Day treatment group): Few focal tumor nodules in 4/8; distant metastasis (A549 cells; −1 Day treatment group): No distant metastasis; No. of metastatic nodules in lungs Mean ± SEM (A549 cells; −1 Day treatment group): 22 ± 7
N-myristoyl-GAQFSKTAAK-NH2 (Myristoyl-GAQFSKTAAK-NH2; SMILES CCCCCCCCCCCCCC(=O)NCC(=O)N[C@@H](C)C(=O)N[C@@H](CCC(N)=O)C(=O)N[C@@H](Cc1ccccc1)C(=O)N[C@@H](CO)C(=O)N[C@@H](CCCCN)C(=O)N[C@H](C(=O)N[C@@H](C)C(=O)N[C@@H](C)C(=O)N[C@@H](CCCCN)C(N)=O)[C@@H](C)O) [BIO-11002]	approximately 2.7	approximately 3.8	approximately 50	approximately 25	increased migration index numbers	decreased migrated cell numbers												significantly reduced cell numbers	
N-myristoyl-AKGE (Myristoyl-AKGE; listed as Homo sapiens) [BIO-91200]	approximately 1.7	approximately 2.4	approximately 65	approximately 40	increased migration index numbers	decreased migrated cell numbers			approximately 55	approximately 2.1								significantly reduced cell numbers	
GTAPAAEGAGAEVKRASAEAKQAF (Myristoyl-GTAPAAEGAGAEVKRASAEAKQAF) [RNS peptide, reference compound]	approximately 1.1	approximately 1	approximately 95	approximately 90			approximately 90	approximately 1.3	approximately 95	approximately 1.2	3/4	3/4	1/4	2/4	1.00 ± 0.40;	5.75 ± 2.01	1.72 ± 0.41 mm		
N-myristoyl-GAQFSKTAAK (Myristoyl-GAQFSKTAAK; listed as Homo sapiens) [BIO-11000]					increased migration index numbers	decreased migrated cell numbers	approximately 70	approximately 1.5	approximately 50	approximately 2.3									
